Test results reported in paper PMC4965013, “Open Source Drug Discovery with the Malaria Box Compound Collection for Neglected Diseases and Beyond” (PLoS Pathogens, 2016).

Experiments:
[1] = test system: bovine Babesia and equine Babesia and Theileria parasites; assay: Babesia and Theileria fluorescence-based assay, all four species; assay type: cell-based, B. bovis, B. bigemina, T. equi, B. caballi
[2] = test system: P. falciparum; assay: EC50 listed in S2 Table Metabolomics (used to set the concentration tested); assay type: cell-based; settings: Plasmodium falciparum; EC50 used for Factor_XEC50 in metabolomics; read-out: EC50_nM
[3] = test system: P. falciparum 3D7 trophozoites; assay: Metabolomic fingerprint profiling LC-MS; assay type: cell-based, Plasmodium falciparum; design: UDP-D-glucose / ADP-D-glucose: unit not given here; settings: for Acetyllysine / N-acetyl-L-ornithine / N-carbamoyl-L-aspartate / NADPH / dAMP / dCMP / dTDP / dTMP / dTTP / dihydroorotate / orotate / DLH / DLS/SDL/SID / PD / PEE / PVNF / 3-phosphoglycerate / ADP-D-glucose / ATP / CDP / D-sedoheptulose-1/7-phosphate / FAD / GMP / NAD+ / NADP+ / Octoluse Bisphosphate / Pyroglutamic acid / UDP-D-glucose / UDP-D-glucuronate / UDP-N-acetyl-glucosamine / UDP / UMP / UTP / a-ketoglutarate / citrate/isocitrate / cytidine / dATP / dGMP/AMP / fumarate / glucose-1/6-phosphate / glycerate / guanine / guanosine / hypoxanthine / indole / inosine / nicotinate / ornithine / phosphoenolpyruvate / pyruvate / ribose-phosphate / sarcosine/alanine / sn-glycerol-3-phosphate / succinate/methylmalonic acid / uridine / xanthosine: S2 Table Metabolomics; for Acetyllysine: metabolite Acetyllysine; for N-acetyl-L-ornithine: metabolite N-acetyl-L-ornithine; for N-carbamoyl-L-aspartate: metabolite N-carbamoyl-L-aspartate; for NADPH: metabolite NADPH; for dAMP: metabolite dAMP; for dCMP: metabolite dCMP; for dTDP: metabolite dTDP; for dTMP: metabolite dTMP; for dTTP: metabolite dTTP; for dihydroorotate: metabolite dihydroorotate; for orotate: metabolite orotate; for DLH: peptide DLH; for DLS/SDL/SID: peptide DLS/SDL/SID; for PD: peptide PD; for PEE: peptide PEE; for PVNF: peptide PVNF; for 3-phosphoglycerate: metabolite 3-phosphoglycerate; for ADP-D-glucose: metabolite ADP-D-glucose; for ATP: metabolite ATP; for CDP: metabolite CDP; for CDP / D-sedoheptulose-1/7-phosphate / GMP / Octoluse Bisphosphate / UDP / UMP / UTP / citrate/isocitrate / dGMP/AMP / fumarate / glucose-1/6-phosphate / glycerate / guanine / guanosine / inosine / pyruvate / sarcosine/alanine / succinate/methylmalonic acid / uridine / xanthosine: change in metabolite level after compound treatment; for D-sedoheptulose-1/7-phosphate: metabolite D-sedoheptulose-1/7-phosphate; for FAD: metabolite FAD; for GMP: metabolite GMP; for NAD+: metabolite NAD+; for NADP+: metabolite NADP+; for Octoluse Bisphosphate: metabolite Octoluse Bisphosphate; for Pyroglutamic acid: metabolite Pyroglutamic acid; for UDP-D-glucose: metabolite UDP-D-glucose; for UDP-D-glucuronate: metabolite UDP-D-glucuronate; for UDP-N-acetyl-glucosamine: metabolite UDP-N-acetyl-glucosamine; for UDP: metabolite UDP; for UMP: metabolite UMP; for UTP: metabolite UTP; for a-ketoglutarate: metabolite a-ketoglutarate; for citrate/isocitrate: metabolite citrate/isocitrate; for cytidine: metabolite cytidine; for dATP: metabolite dATP; for dGMP/AMP: metabolite dGMP/AMP; for fumarate: metabolite fumarate; for glucose-1/6-phosphate: metabolite glucose-1/6-phosphate; for glycerate: metabolite glycerate; for guanine: metabolite guanine; for guanosine: metabolite guanosine; for hypoxanthine: metabolite hypoxanthine; for indole: metabolite indole; for inosine: metabolite inosine; for 2_3-Diphosphoglyceric acid / 4-phosphopantothenate / 6-phospho-D-gluconate / FMN / IMP / Pyrophosphate / Sedoheptoluse bisphosphate / cyclic-AMP / glutathione disulfide / lactate / myo-inositol: metabolite level change after treatment; for nicotinate: metabolite nicotinate; for ornithine: metabolite ornithine; for phosphoenolpyruvate: metabolite phosphoenolpyruvate; for pyruvate: metabolite pyruvate; for ribose-phosphate: metabolite ribose-phosphate; for sarcosine/alanine: metabolite sarcosine/alanine; for sn-glycerol-3-phosphate: metabolite sn-glycerol-3-phosphate; for succinate/methylmalonic acid: metabolite succinate/methylmalonic acid; for uridine: metabolite uridine; for xanthosine: metabolite xanthosine

CN(C)c1ccc(C(O)(c2ccc(N(C)C)cc2)c2ccc(N(C)C)cc2)cc1 [MMV665941]
anti-Babesia and anti-Theileria hits, IC50 in words [1]: nanomolar IC50s
EC50 [2]: 255 nM
Acetyllysine [3]: -1.017
N-acetyl-L-ornithine [3]: -0.7597
N-carbamoyl-L-aspartate [3]: -0.9197
NADPH [3]: 0.7329
dAMP [3]: -0.1528
dCMP [3]: -0.8045
dTDP [3]: -0.3693
dTMP [3]: -0.3724
dTTP [3]: 0.2892
dihydroorotate [3]: -0.7761
orotate [3]: -0.6971
DLH [3]: -0.3436
DLS/SDL/SID [3]: -0.7858
PD [3]: -0.9616
PEE [3]: -0.896
PVNF [3]: -0.9967
3-phosphoglycerate [3]: -0.2513
ADP-D-glucose [3]: -0.2022
ATP [3]: -0.1582
CDP [3]: -0.3781
D-sedoheptulose-1/7-phosphate [3]: -0.2425
FAD [3]: -0.1824
GMP [3]: -1.314
NAD+ [3]: -0.1192
NADP+ [3]: 0.08054
Octoluse Bisphosphate [3]: -0.4622
Pyroglutamic acid [3]: -0.1275
UDP-D-glucose [3]: -0.08523
UDP-D-glucuronate [3]: -0.09688
UDP-N-acetyl-glucosamine [3]: -0.3177
UDP [3]: -0.7488
UMP [3]: -1.259
UTP [3]: -0.2947
a-ketoglutarate [3]: -0.5688
citrate/isocitrate [3]: -0.2269
cytidine [3]: 0.5361
dATP [3]: 0.2904
dGMP/AMP [3]: -0.7364
fumarate [3]: -0.9732
glucose-1/6-phosphate [3]: -0.5386
glycerate [3]: -0.5934
guanine [3]: -0.3347
guanosine [3]: -0.8332
hypoxanthine [3]: -0.2046
indole [3]: -0.2792
inosine [3]: -0.51
2_3-Diphosphoglyceric acid [3]: -0.09061
4-phosphopantothenate [3]: -0.6586
6-phospho-D-gluconate [3]: -0.08067
FMN [3]: 0.05461
IMP [3]: -0.2283
Pyrophosphate [3]: -0.1004
Sedoheptoluse bisphosphate [3]: -0.2916
cyclic-AMP [3]: 0.03248
glutathione disulfide [3]: -0.3448
lactate [3]: -0.6265
myo-inositol [3]: -1.035
nicotinate [3]: 0.06813
ornithine [3]: -0.116
phosphoenolpyruvate [3]: -0.1381
pyruvate [3]: -0.3661
ribose-phosphate [3]: -0.3246
sarcosine/alanine [3]: -0.4581
sn-glycerol-3-phosphate [3]: -0.06155
succinate/methylmalonic acid [3]: -1.567
uridine [3]: -0.4322
xanthosine [3]: -0.131

COc1ccccc1N=C1C(=O)c2ccccc2C(O)=C1N1CCCCC1 [MMV085203]
anti-Babesia and anti-Theileria hits, IC50 in words [1]: nanomolar IC50s
Acetyllysine [3]: 0.5338
N-acetyl-L-ornithine [3]: 0.417
N-carbamoyl-L-aspartate [3]: -0.03953
NADPH [3]: 1.905
dAMP [3]: 0.2134
dCMP [3]: -0.3018
dTDP [3]: 0.1555
dTMP [3]: 0.3091
dTTP [3]: 0.09879
dihydroorotate [3]: -0.4435
orotate [3]: -0.006229
DLH [3]: 0.05618
DLS/SDL/SID [3]: 0.215
PD [3]: -0.1394
PEE [3]: 0.002208
PVNF [3]: 0.05104
3-phosphoglycerate [3]: 0.03547
ADP-D-glucose [3]: -0.1308
ATP [3]: 0.1374
CDP [3]: 0.2087
D-sedoheptulose-1/7-phosphate [3]: 0.1847
FAD [3]: -0.04298
GMP [3]: 0.06518
NAD+ [3]: -0.0924
NADP+ [3]: 0.08883
Octoluse Bisphosphate [3]: 0.05889
Pyroglutamic acid [3]: 0.3327
UDP-D-glucose [3]: 0.02335
UDP-D-glucuronate [3]: 0.1307
UDP-N-acetyl-glucosamine [3]: -0.006531
UDP [3]: 0.1215
UMP [3]: -0.1092
UTP [3]: 0.1112
a-ketoglutarate [3]: 0.6853
citrate/isocitrate [3]: 0.6482
cytidine [3]: -0.04401
dATP [3]: 0.1251
dGMP/AMP [3]: 0.1681
fumarate [3]: 0.1969
glucose-1/6-phosphate [3]: -0.1808
glycerate [3]: 0.6274
guanine [3]: 0.2252
guanosine [3]: 0.5678
hypoxanthine [3]: 0.8131
indole [3]: 0.6437
inosine [3]: 0.2953
2_3-Diphosphoglyceric acid [3]: 0.04377
4-phosphopantothenate [3]: 0.03169
6-phospho-D-gluconate [3]: 0.09424
FMN [3]: -0.0513
IMP [3]: 0.06497
Pyrophosphate [3]: -0.1041
Sedoheptoluse bisphosphate [3]: 0.1294
cyclic-AMP [3]: 0.1643
glutathione disulfide [3]: -0.1576
lactate [3]: 0.4496
myo-inositol [3]: 0.5579
nicotinate [3]: 0.3875
ornithine [3]: 0.05264
phosphoenolpyruvate [3]: 0.005153
pyruvate [3]: 1.4601
ribose-phosphate [3]: 1.0837
sarcosine/alanine [3]: 0.0342
sn-glycerol-3-phosphate [3]: -0.8649
succinate/methylmalonic acid [3]: 0.5863
uridine [3]: 0.4561
xanthosine [3]: 0.5245
